Reference: patent publication US20230085307A1, “PYRIDAZINONE COMPOUND AND HERBICIDE” (NISSAN CHEMICAL CORPORATION, priority 2019, published 2023)

Tests used:
late watergrass = assay: Test Example 2: herbicidal activity, application during weed generation under submerged conditions (Table 17, symbol A); type: in vivo, late watergrass (Echinochloa oryzicola); settings: AAH 320 g/ha; application during weed generation, submerged conditions
Outline: (§1)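 Steps: fill Wagner pots with alluvial soil; add water to give 4 cm depth; sow the species mixed; grow under glass at 25–30° C.; at 1–2 leaves apply water-diluted emulsion formulation to the water surface at a fixed herbicide amount; score after 3 weeks.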

Japanese bulrush = assay: Test Example 2: herbicidal activity, application during weed generation under submerged conditions (Table 17, symbol B); type: in vivo, Japanese bulrush (Schoenoplectus juncoides); settings: AAH 320 g/ha; application during weed generation, submerged conditions
Outline: as §1

oval-leafed pondweed = assay: Test Example 2: herbicidal activity, application during weed generation under submerged conditions (Table 17, symbol C); type: in vivo, oval-leafed pondweed (Monochoria vaginalis); settings: AAH 320 g/ha; application during weed generation, submerged conditions
Outline: as §1

barnyard grass [1] = assay: Test Example 3: herbicidal effect by foliage application, Wagner pot (Table 18, symbol H); type: in vivo, barnyard grass (Echinochloa crus-galli); settings: 320 g/ha
Outline: (§2)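 Plants were sown in alluvial soil held under 0.1–0.5 cm standing water and grown 14 days in a greenhouse at 25–30 °C. An emulsifiable formulation, water-diluted to the set dose, was then sprayed onto the foliage, and effects were scored three weeks later using previously defined criteria.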

Chinese sprangletop = assay: Test Example 3: herbicidal effect by foliage application, Wagner pot (Table 18, symbol D); type: in vivo, chinese sprangletop (Leptochloa chinensis); settings: 320 g/ha
Outline: as §2

rice flat sedge = assay: Test Example 3: herbicidal effect by foliage application, Wagner pot (Table 18, symbol E); type: in vivo, rice flat sedge (Cyperus iria); settings: 320 g/ha
Outline: as §2

southern crabgrass [2] = assay: Test Example 4: herbicidal effect by soil treatment (Table 19, symbol F); type: in vivo, southern crabgrass (Digitaria ciliaris); settings: amount of applied herbicide 320 g/ha
Outline: (§3)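 Herbicidal effect was rated 3 weeks after treatment, using the scoring criteria of an earlier test. The compound, formulated as an emulsion and diluted in water to a set herbicide amount, had been sprayed uniformly on soil over freshly sown seeds. Growth took place in a greenhouse at 25° C. to 30° C.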

green foxtail [3] = assay: Test Example 4: herbicidal effect by soil treatment (Table 19, symbol G); type: in vivo, green foxtail (Setaria viridis); settings: amount of applied herbicide 320 g/ha
Outline: as §3

barnyard grass [4] = assay: Test Example 4: herbicidal effect by soil treatment (Table 19, symbol H); type: in vivo, barnyard grass (Echinochloa crus-galli); settings: amount of applied herbicide 320 g/ha
Outline: as §3

wild oat [5] = assay: Test Example 4: herbicidal effect by soil treatment (Table 19, symbol I); type: in vivo, wild oat (Avena fatua); settings: amount of applied herbicide 320 g/ha
Outline: as §3

blackgrass [6] = assay: Test Example 4: herbicidal effect by soil treatment (Table 19, symbol J); type: in vivo, blackgrass (Alopecurus myosuroides); settings: amount of applied herbicide 320 g/ha
Outline: as §3

Italian ryegrass [7] = assay: Test Example 4: herbicidal effect by soil treatment (Table 19, symbol K); type: in vivo, Italian ryegrass (Lolium multiflorum); settings: amount of applied herbicide 320 g/ha
Outline: as §3

windgrass [8] = assay: Test Example 4: herbicidal effect by soil treatment (Table 19, symbol L); type: in vivo, windgrass (Apera spica-venti); settings: amount of applied herbicide 320 g/ha
Outline: as §3

velvetleaf [9] = assay: Test Example 4: herbicidal effect by soil treatment (Table 19, symbol M); type: in vivo, velvetleaf (Abutilon theophrasti); settings: amount of applied herbicide 320 g/ha
Outline: as §3

redroot pigweed [10] = assay: Test Example 4: herbicidal effect by soil treatment (Table 19, symbol N); type: in vivo, redroot pigweed (Amaranthus retroflexus); settings: amount of applied herbicide 320 g/ha
Outline: as §3

lambsquarters [11] = assay: Test Example 4: herbicidal effect by soil treatment (Table 19, symbol O); type: in vivo, lambsquarters (Chenopodium album); settings: amount of applied herbicide 320 g/ha
Outline: as §3

chickweed [12] = assay: Test Example 4: herbicidal effect by soil treatment (Table 19, symbol P); type: in vivo, common chickweed (Stellaria media); settings: amount of applied herbicide 320 g/ha
Outline: as §3

false cleavers [13] = assay: Test Example 4: herbicidal effect by soil treatment (Table 19, symbol Q); type: in vivo, false cleavers (Galium spurium); settings: amount of applied herbicide 320 g/ha
Outline: as §3

persian speedwell [14] = assay: Test Example 4: herbicidal effect by soil treatment (Table 19, symbol R); type: in vivo, Persian speedwell (Veronica persica); settings: amount of applied herbicide 320 g/ha
Outline: as §3

southern crabgrass [15] = assay: Test Example 5: herbicidal effect by foliage application, plastic box (Table 20, symbol F); type: in vivo, southern crabgrass (Digitaria ciliaris); settings: foliage application, 320 g/ha, three weeks after application
Outline: (§4)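 Foliar spray test: emulsion formulation diluted in water to a set application rate, sprayed onto 14-day-old plants raised in diluvial soil at 25° C to 30° C under glass. Both herbicidal effect and crop effect rated visually three weeks later.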

green foxtail [16] = assay: Test Example 5: herbicidal effect by foliage application, plastic box (Table 20, symbol G); type: in vivo, green foxtail (Setaria viridis); settings: foliage application, 320 g/ha, three weeks after application
Outline: as §4

barnyard grass [17] = assay: Test Example 5: herbicidal effect by foliage application, plastic box (Table 20, symbol H); type: in vivo, barnyard grass (Echinochloa crus-galli); settings: foliage application, 320 g/ha, three weeks after application
Outline: as §4

wild oat [18] = assay: Test Example 5: herbicidal effect by foliage application, plastic box (Table 20, symbol I); type: in vivo, wild oat (Avena fatua); settings: foliage application, 320 g/ha, three weeks after application
Outline: as §4

blackgrass [19] = assay: Test Example 5: herbicidal effect by foliage application, plastic box (Table 20, symbol J); type: in vivo, blackgrass (Alopecurus myosuroides); settings: foliage application, 320 g/ha, three weeks after application
Outline: as §4

Italian ryegrass [20] = assay: Test Example 5: herbicidal effect by foliage application, plastic box (Table 20, symbol K); type: in vivo, Italian ryegrass (Lolium multiflorum); settings: foliage application, 320 g/ha, three weeks after application
Outline: as §4

windgrass [21] = assay: Test Example 5: herbicidal effect by foliage application, plastic box (Table 20, symbol L); type: in vivo, windgrass (Apera spica-venti); settings: foliage application, 320 g/ha, three weeks after application
Outline: as §4

velvetleaf [22] = assay: Test Example 5: herbicidal effect by foliage application, plastic box (Table 20, symbol M); type: in vivo, velvetleaf (Abutilon theophrasti); settings: foliage application, 320 g/ha, three weeks after application
Outline: as §4

redroot pigweed [23] = assay: Test Example 5: herbicidal effect by foliage application, plastic box (Table 20, symbol N); type: in vivo, redroot pigweed (Amaranthus retroflexus); settings: foliage application, 320 g/ha, three weeks after application
Outline: as §4

lambsquarters [24] = assay: Test Example 5: herbicidal effect by foliage application, plastic box (Table 20, symbol O); type: in vivo, lambsquarters (Chenopodium album); settings: foliage application, 320 g/ha, three weeks after application
Outline: as §4

chickweed [25] = assay: Test Example 5: herbicidal effect by foliage application, plastic box (Table 20, symbol P); type: in vivo, common chickweed (Stellaria media); settings: foliage application, 320 g/ha, three weeks after application
Outline: as §4

false cleavers [26] = assay: Test Example 5: herbicidal effect by foliage application, plastic box (Table 20, symbol Q); type: in vivo, false cleavers (Galium spurium); settings: foliage application, 320 g/ha, three weeks after application
Outline: as §4

persian speedwell [27] = assay: Test Example 5: herbicidal effect by foliage application, plastic box (Table 20, symbol R); type: in vivo, Persian speedwell (Veronica persica); settings: foliage application, 320 g/ha, three weeks after application
Outline: as §4

CCCC(=O)Oc1c(C)nn(C)c(=O)c1-c1c(-c2ccc3c(c2)OCO3)sc2ccccc12 [1-088]
herbicidal effect rating, A: late watergrass (late watergrass): 1 (Herbicidal rate of 5% or more and less than 20%)
herbicidal effect rating, B: Japanese bulrush (Japanese bulrush): 3 (Herbicidal rate of 40% or more and less than 70%)
herbicidal effect rating, C: oval-leafed pondweed (oval-leafed pondweed): 4 (Herbicidal rate of 70% or more and less than 90%)
herbicidal effect on H (barnyard grass), rating 0-5 (barnyard grass [1]): 5 (Herbicidal rate of 90% or more (almost completely withered))
herbicidal effect on D (Chinese sprangletop), rating 0-5 (Chinese sprangletop): 3 (Herbicidal rate of 40% or more and less than 70%)
herbicidal effect on E (rice flat sedge), rating 0-5 (rice flat sedge): 5 (Herbicidal rate of 90% or more (almost completely withered))
herbicidal effect rating, F: southern crabgrass (southern crabgrass [2]): 3 (Herbicidal rate of 40% or more and less than 70%)
herbicidal effect rating, G: green foxtail (green foxtail [3]): 4 (Herbicidal rate of 70% or more and less than 90%)
herbicidal effect rating, H: barnyard grass (barnyard grass [4]): 4 (Herbicidal rate of 70% or more and less than 90%)
herbicidal effect rating, I: wild oat (wild oat [5]): 0 (Herbicidal rate of 5% or less (almost no effect))
herbicidal effect rating, J: blackgrass (blackgrass [6]): 0 (Herbicidal rate of 5% or less (almost no effect))
herbicidal effect rating, K: Italian ryegrass (Italian ryegrass [7]): 1 (Herbicidal rate of 5% or more and less than 20%)
herbicidal effect rating, L: windgrass (windgrass [8]): 0 (Herbicidal rate of 5% or less (almost no effect))
herbicidal effect rating, M: velvetleaf (velvetleaf [9]): 0 (Herbicidal rate of 5% or less (almost no effect))
herbicidal effect rating, N: redroot pigweed (redroot pigweed [10]): 0 (Herbicidal rate of 5% or less (almost no effect))
herbicidal effect rating, O: lambsquarters (lambsquarters [11]): 3 (Herbicidal rate of 40% or more and less than 70%)
herbicidal effect rating, P: chickweed (chickweed [12]): 4 (Herbicidal rate of 70% or more and less than 90%)
herbicidal effect rating, Q: false cleavers (false cleavers [13]): 0 (Herbicidal rate of 5% or less (almost no effect))
herbicidal effect rating, R: persian speedwell (persian speedwell [14]): 5 (Herbicidal rate of 90% or more (almost completely withered))
herbicidal effect grade, F: southern crabgrass (southern crabgrass [15]): 3 (Herbicidal rate of 40% or more and less than 70%)
herbicidal effect grade, G: green foxtail (green foxtail [16]): 4 (Herbicidal rate of 70% or more and less than 90%)
herbicidal effect grade, H: barnyard grass (barnyard grass [17]): 3 (Herbicidal rate of 40% or more and less than 70%)
herbicidal effect grade, I: wild oat (wild oat [18]): 0 (Herbicidal rate of 5% or less (almost no effect))
herbicidal effect grade, J: blackgrass (blackgrass [19]): 0 (Herbicidal rate of 5% or less (almost no effect))
herbicidal effect grade, K: Italian ryegrass (Italian ryegrass [20]): 3 (Herbicidal rate of 40% or more and less than 70%)
herbicidal effect grade, L: windgrass (windgrass [21]): 0 (Herbicidal rate of 5% or less (almost no effect))
herbicidal effect grade, M: velvetleaf (velvetleaf [22]): 5 (Herbicidal rate of 90% or more (almost completely withered))
herbicidal effect grade, N: redroot pigweed (redroot pigweed [23]): 3 (Herbicidal rate of 40% or more and less than 70%)
herbicidal effect grade, O: lambsquarters (lambsquarters [24]): 3 (Herbicidal rate of 40% or more and less than 70%)
herbicidal effect grade, P: chickweed (chickweed [25]): 5 (Herbicidal rate of 90% or more (almost completely withered))
herbicidal effect grade, Q: false cleavers (false cleavers [26]): 0 (Herbicidal rate of 5% or less (almost no effect))
herbicidal effect grade, R: persian speedwell (persian speedwell [27]): 5 (Herbicidal rate of 90% or more (almost completely withered))
